ChEMBL document CHEMBL3352691, “Meroterpenoids from the alga-derived fungi Penicillium thomii Maire and Penicillium lividum Westling” (J Nat Prod, 2014)
Structures can show the parent of a compound that is named as a salt. Active and inactive are the calls of the source. No cut-off for these calls is given here.

Assays:
[1] = Cytotoxicity against mouse JB6 Cl41 cells assessed as reduction in cell viability up to 100 uM after 2 hrs by MTS assay; format: cell-based; conditions: jb6 cl41, 2 h
[2] = Inhibition of AP-1 basal transcriptional activity in mouse JB6 Cl41 cells at 6.25 uM after 12 hrs by luciferase reporter gene assay; format: functional; conditions: JB6 Cl41, 12 h
[3] = Inhibition of endo-1,3-beta-D-glucanase in Pseudocardium sachalinensis preincubated for 15 mins by Nelson method
JB6 Cl41 = test: Inhibition of AP-1 basal transcriptional activity in mouse JB6 Cl41 cells at non cytotoxic concentration after 12 hrs by luciferase reporter gene assay; format: functional, cell-based
[4] = Cytotoxicity against mouse JB6 Cl41 cells after 2 hrs by MTS assay; format: cell-based; conditions: JB6 Cl41, 2 h
MDA-MB-231 = test: Cytotoxicity against human MDA-MB-231 cells after 2 hrs by MTS assay; format: functional, cell-based; conditions: MDA-MB-231, 2 h

| SMILES | IC50 [3] [µM] | Activity [1] | inhibition at 6.25 µM [2] [%] | inhibition (JB6 Cl41) | IC50 [4] [µM] | IC50 (MDA-MB-231) [µM] |
| --- | --- | --- | --- | --- | --- | --- |
| CC(CC[C@@H](C)[C@H]1CC[C@H]2[C@@H]3C[C@H](OS(=O)(=O)O)[C@H]4C[C@H](OS(=O)(=O)O)[C@@H](OS(=O)(=O)O)C[C@]4(C)[C@H]3CC[C@]12C)C(C)(C)C (some centres not stated) [HALISTANOL SULFATE] | 130 |  |  |  |  |  |
| COc1c2c(c(C)c3c1C(=O)OC3)O[C@@]1(C)C[C@@H](O)[C@H]3C(C)(C)OC(=O)CC[C@]3(C)[C@H]1C2 | 2 | Non-toxic | 27.6 | Active | < 10 | < 10 |
| COc1c2c(c(C)c3c1C(=O)OC3)O[C@@]1(C)C[C@@H](O)[C@]34O[C@](O)(CC[C@]3(C)[C@H]1C2)OC4(C)C | 250 |  |  |  |  |  |
| C=C(C)[C@@H]1CC[C@]2(C)Oc3c(C)c4c(c(OC)c3C[C@@H]2[C@]1(C)CCC(=O)O)C(=O)OC4 | 1000 |  |  |  | < 10 | < 10 |
| COc1c2c(c(C)c3c1C(=O)OC3)O[C@@]1(C)C[C@@H](O)[C@@H](C(C)(C)O)[C@@](C)(CCC(=O)O)[C@H]1C2 | 1 |  |  | Active | < 10 | < 10 |

These reach a lower IC50 [3]. Values come first.

| IC50 [3] [µM] | SMILES | Activity [1] | inhibition at 6.25 µM [2] [%] | inhibition (JB6 Cl41) | IC50 [4] [µM] | IC50 (MDA-MB-231) [µM] |
| --- | --- | --- | --- | --- | --- | --- |
| 0.2 | CCCCOC(=O)CC[C@@]1(C)[C@H]2Cc3c(c(C)c4c(c3OC)C(=O)OC4)O[C@@]2(C)C[C@@H](O)[C@H]1C(C)(C)O | Non-toxic | 36.1 | Active | < 10 | < 10 |
| 0.12 | C=C(C)[C@@H]1[C@H](O)C[C@]2(C)Oc3c(C)c4c(c(OC)c3C[C@@H]2[C@]1(C)CCC(=O)O)C(=O)OC4 |  |  |  |  |  |
| 0.1 | CCCCOC(=O)CC[C@@]1(C)[C@H]2Cc3c(c(C)c4c(c3OC)C(=O)OC4)O[C@@]2(C)CC[C@H]1C(C)(C)O | Non-toxic | 34 |  |  |  |
| 0.01 | COc1c2c(c(C)c3c1C(=O)OC3)O[C@@]1(C)CC[C@H]3C(C)(C)OC(=O)CC[C@]3(C)[C@H]1C2 | Non-toxic | 36.3 | Active | < 10 | < 10 |
| 0.01 | COc1c2c(c(C)c3c1C(=O)OC3)O[C@@]1(C)CC[C@@H](C(C)(C)O)[C@@](C)(CCC(=O)O)[C@H]1C2 |  |  |  |  |  |
